Our source for the solubility and IC50 values is patent US20260234136A1, “ISOXAZOLIDINES AS RIPK1 INHIBITORS AND USE THEREOF” (GENZYME CORPORATION, priority 2023, published 2026).

One series in a line: physchem. Conditions: 50 mM phosphate buffer, 25 °C, pH 7.4, aqueous buffer, thermodynamic from solid.
Another series has as its system U937 cells. Put plainly: Cellular assay in U937 cells to measure the activity of RIPK1-inhibitors on cell death (necroptosis). The format is cell-based. Conditions: Homo sapiens, U-937, 50 μM zVAD.fmk and 100 ng/ml recombinant human TNFα, overnight (18 to 24 hrs), MTS readout. The procedure: Absorbance of formazan was read at 490 nm. The inhibitory activity of the test compound was quantified in a concentration response curve (CRC) experiment.
Compounds were obtained as 10 mM stock solutions and were diluted 1 to 10 volumes with DMSO to yield a 1 mM solution. From this solution 2 μl were diluted with 998 μl growth medium.
U937 cells were cultured in RPMI1640 Glutamax and 10% heat inactivated FBS. […] 50 μl of compound dilutions, as described in Cellular assay in U937 cells, were added and the cell suspension incubated overnight (18 to 24 hrs) at 37° C., 5% CO2 in a humidified atmosphere (95% rH).
CellTiter 96 Aqueous reagent was mixed (100 μl PMS (phenazine methosulfate) solution/2 ml MTS (3-(4,5-[…])-5-(3-carboxymethoxyphenyl)-2-(4-sulfophenyl)-2H-tetrazolium, inner salt) solution) and 20 μl were added per well. After 4 hrs incubation at 37° C. (5% CO2 95% rH) optical density was measured at 490 nm on a microplate reader (Tecan Infinite M1000).
The % inhibition is expressed as percentage of the maximal inhibition value obtained in the absence of TNFα/zVAD.fmc.

pIC50: −log10 of the molar value. Values after ≈ are worked out from the molar mass of the structure shown. A value given as a limit tells only on which side of the number the result lay.

With `Cc1ccc([C@@H]2CCON2C(=O)[C@H]2CCN(c3cc(-n4ccnc4C)ncn3)CC23CC3)cn1` (single isomer, unassigned) [Example 79], in “physchem”, the solubility (in general, the concentration that dissolves in the medium under given conditions) at 16 h was above 1090 µM.

In turn, `Cc1ccc([C@@H]2CCON2C(=O)C2CCN(c3ncc(F)c(-c4ccnn4C)n3)CC2)cn1` [Example 19, [1-[5-fluoro-4-(2-methylpyrazol-3-yl)pyrimidin-2-yl]-4-piperidyl]-[(3S)-3-(6-methyl-3-pyridyl)isoxazolidin-2-yl]methanone] returned a solubility at 16 h in “physchem” of 7.1 µM (≈ 3.21 µg/mL).

`CN1CCN(c2ccnc(N3CCC(C(=O)N4OCC[C@H]4c4cncc(F)c4)CC3)n2)C1=O` [Example 62, 1-[2-[4-[(3S)-3-(5-fluoropyridin-3-yl)-1,2-oxazolidine-2-carbonyl]piperidin-1-yl]pyrimidin-4-yl]-3-methylimidazolidin-2-one]: in the series on U937 cells, the pIC50 (as a rule, the negative decadic logarithm of the IC50, by convention in mol/L) is 7.39.

Take `Cc1ccc([C@@H]2CCON2C(=O)[C@@H]2CCN(c3nccc(N4CCOCC4=O)n3)CC23CC3)cn1` [Example 63, 4-[2-[(8R)-8-[(3S)-3-(6-methylpyridin-3-yl)-1,2-oxazolidine-2-carbonyl]-5-azaspiro[2.5]octan-5-yl]pyrimidin-4-yl]morpholin-3-one]: the pIC50 with U937 cells was 7.36.

As to `Cc1nccn1-c1nc(N2CCC(C(=O)N3OCC[C@H]3c3cncc(F)c3)CC2)ncc1F` [Example 64, [1-[5-fluoro-4-(2-methylimidazol-1-yl)pyrimidin-2-yl]piperidin-4-yl]-[(3S)-3-(5-fluoropyridin-3-yl)-1,2-oxazolidin-2-yl]methanone], in the series on U937 cells, the pIC50 is 9.00.

Take `Cc1ccc([C@@H]2CCON2C(=O)C2CCN(c3nccc(N4CCCC(F)(F)C4=O)n3)CC2)cn1` [Example 66, 3,3-difluoro-1-[2-[4-[(3S)-3-(6-methylpyridin-3-yl)-1,2-oxazolidine-2-carbonyl]piperidin-1-yl]pyrimidin-4-yl]piperidin-2-one]: in the series on U937 cells, the pIC50 was 5.46.

As for `Cc1ccc([C@@H]2CCON2C(=O)C2CCN(c3nc(-c4ncco4)ncc3F)CC2)cn1` [Example 67, [1-[5-fluoro-2-(1,3-oxazol-2-yl)pyrimidin-4-yl]piperidin-4-yl]-[(3S)-3-(6-methylpyridin-3-yl)-1,2-oxazolidin-2-yl]methanone], the pIC50 in the series with U937 cells is 6.87.

For `Cc1ncc([C@@H]2CCON2C(=O)C2CCN(c3ncc(F)c(N4CCC5(CC5)C4=O)n3)CC2)cc1F` [Example 68, 5-[5-fluoro-2-[4-[(3S)-3-(5-fluoro-6-methylpyridin-3-yl)-1,2-oxazolidine-2-carbonyl]piperidin-1-yl]pyrimidin-4-yl]-5-azaspiro[2.4]heptan-4-one], in the series with U937 cells, the negative logarithm of the IC50 (pIC50) was 5.00.

As for `Cc1ccc([C@@H]2CCON2C(=O)C2CCN(c3nccc(N4CCC5(CC5)C4=O)n3)CC2)cn1` [Example 70, 5-[2-[4-[(3S)-3-(6-methylpyridin-3-yl)-1,2-oxazolidine-2-carbonyl]piperidin-1-yl]pyrimidin-4-yl]-5-azaspiro[2.4]heptan-4-one], the pIC50 with U937 cells was 6.97.

For the molecule `O=C(C1CCN(c2nccc(N3CCCC4(CC4)C3=O)n2)CC1)N1OCC[C@H]1c1cncc(F)c1` [Example 72, 5-[2-[4-[(3S)-3-(5-fluoropyridin-3-yl)-1,2-oxazolidine-2-carbonyl]piperidin-1-yl]pyrimidin-4-yl]-5-azaspiro[2.5]octan-4-one], in the series on U937 cells, the pIC50 is 7.24.

Consider `Cc1ccc([C@@H]2CCON2C(=O)C2CCN(c3nccc(N4CCC(F)(F)C4=O)n3)CC2)cn1` [Example 73, 3,3-difluoro-1-[2-[4-[(3S)-3-(6-methylpyridin-3-yl)-1,2-oxazolidine-2-carbonyl]piperidin-1-yl]pyrimidin-4-yl]pyrrolidin-2-one], for which the pIC50 in the series on U937 cells was 6.26.

For `Cc1cncc([C@@H]2CCON2C(=O)C2CCN(c3nccc(N4CCC(F)(F)C4=O)n3)CC2)c1` [Example 74, 3,3-difluoro-1-[2-[4-[(3S)-3-(5-methylpyridin-3-yl)-1,2-oxazolidine-2-carbonyl]piperidin-1-yl]pyrimidin-4-yl]pyrrolidin-2-one], the negative logarithm of the IC50 (pIC50) in the series on U937 cells was 6.76.

`Cc1cncc([C@@H]2CCON2C(=O)C2CCN(c3nccc(N4CCCC(F)(F)C4=O)n3)CC2)c1` [Example 76, 3,3-difluoro-1-[2-[4-[(3S)-3-(5-methylpyridin-3-yl)-1,2-oxazolidine-2-carbonyl]piperidin-1-yl]pyrimidin-4-yl]piperidin-2-one]: the negative logarithm of the IC50 (pIC50) in the series on U937 cells is 6.31.

As for `Cc1ccc([C@@H]2CCON2C(=O)[C@H]2CCN(c3cc(-c4ccnn4C)ncn3)CC23CC3)cn1` [Example 80, [5-[6-(2-methylpyrazol-3-yl)pyrimidin-4-yl]-5-azaspiro[2.5]octan-8-yl]-[(3S)-3-(6-methylpyridin-3-yl)-1,2-oxazolidin-2-yl]methanone], in the series “physchem”, the solubility at 16 h is above 1090 µM.

For the molecule `Cc1ccc([C@@H]2CCON2C(=O)[C@@H]2CCN(c3ccnc(N4CCCC4=O)n3)CC23CC3)cn1` [Example 85, 1-[4-[(8R)-8-[(3S)-3-(6-methylpyridin-3-yl)-1,2-oxazolidine-2-carbonyl]-5-azaspiro[2.5]octan-5-yl]pyrimidin-2-yl]pyrrolidin-2-one], the pIC50 with U937 cells is 6.29.

As to `O=C1CCCN1c1cc(N2CCC(C(=O)N3OCC[C@H]3c3cncc(F)c3)CC2)ncn1` [Example 86, 1-[6-[4-[(3S)-3-(5-fluoropyridin-3-yl)-1,2-oxazolidine-2-carbonyl]piperidin-1-yl]pyrimidin-4-yl]pyrrolidin-2-one], the pIC50 in the series on U937 cells is 6.11.

`Cc1ccc([C@@H]2CCON2C(=O)C2CCN(c3ccnc(N4CCCC4=O)n3)CC2)cn1` [Example 87, 1-[4-[4-[(3S)-3-(6-methylpyridin-3-yl)-1,2-oxazolidine-2-carbonyl]piperidin-1-yl]pyrimidin-2-yl]pyrrolidin-2-one]: the pIC50 in the series with U937 cells was below 5.00.

Take `Cc1ncc([C@@H]2CCON2C(=O)C2CCN(c3nccc(N4C(=O)CCC4(C)C)n3)CC2)cc1F` [Example 89, 1-[2-[4-[(3S)-3-(5-fluoro-6-methylpyridin-3-yl)-1,2-oxazolidine-2-carbonyl]piperidin-1-yl]pyrimidin-4-yl]-5,5-dimethylpyrrolidin-2-one]: the pIC50 with U937 cells is 6.49.

Turning to `Cc1ccc([C@@H]2CCON2C(=O)C2CCN(c3ccnc(N4CCCC5(CC5)C4=O)n3)CC2)cn1` [Example 90, 5-[4-[4-[(3S)-3-(6-methylpyridin-3-yl)-1,2-oxazolidine-2-carbonyl]piperidin-1-yl]pyrimidin-2-yl]-5-azaspiro[2.5]octan-4-one], the pIC50 in the series with U937 cells was 5.35.

Regarding `Cc1nc([C@@H]2CCON2C(=O)C2CCN(c3nccc(N4CCCC4=O)n3)CC2)cs1` [Example 92, 1-[2-[4-[(3S)-3-(2-methyl-1,3-thiazol-4-yl)-1,2-oxazolidine-2-carbonyl]piperidin-1-yl]pyrimidin-4-yl]pyrrolidin-2-one], the pIC50 with U937 cells is 7.74.

On to `Cc1ncc([C@@H]2CCON2C(=O)C2CCN(c3nccc(C4COC4)n3)CC2)cc1F` [Example 101, [(3S)-3-(5-fluoro-6-methylpyridin-3-yl)-1,2-oxazolidin-2-yl]-[1-[4-(oxetan-3-yl)pyrimidin-2-yl]piperidin-4-yl]methanone], for which, in the series on U937 cells, the pIC50 is 5.59.
